Columns and labels:
barnyardgrass [1] = assay: Test A preemergence; type: in vivo, Echinochloa crus-galli; conditions: 0 to 100 scale where 0 is no effect and 100 is complete control; for Plant response rating, Barnyardgrass: 125 g ai/ha; for Barnyardgrass plant response rating: 500 g ai/ha
Method in brief: (§1)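 Visual 0–100 rating (100 = complete control) taken about 10 d post-treatment relative to untreated checks. Preemergence: directed soil spray on sown loam/sand pots. Postemergence: seedlings 2–10 cm, 1–2 leaf. Non-phytotoxic solvent formulation with surfactant.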

large (Lg) crabgrass [2] = assay: Test A preemergence; type: in vivo, Digitaria sanguinalis; conditions: 0 to 100 scale where 0 is no effect and 100 is complete control; for Plant response rating, Crabgrass, Large: 125 g ai/ha; for Crabgrass, Large plant response rating: 500 g ai/ha
Method in brief: as §1

giant foxtail [3] = assay: Test A preemergence; type: in vivo, Setaria faberii; conditions: 0 to 100 scale where 0 is no effect and 100 is complete control; for Plant response rating, Foxtail, Giant: 125 g ai/ha; for Foxtail, Giant plant response rating: 500 g ai/ha
Method in brief: as §1

morningglory [4] = assay: Test A preemergence; type: in vivo, Ipomoea spp.; conditions: for Morningglory plant response rating (0 to 100 scale): 125 g ai/ha; for Morningglory plant response rating: 500 g ai/ha, 0 to 100 scale where 0 is no effect and 100 is complete control
Method in brief: as §1

pigweed [5] = assay: Test A preemergence; type: in vivo, Amaranthus retroflexus; conditions: for Pigweed plant response rating (0 to 100 scale): 125 g ai/ha; for Pigweed plant response rating: 500 g ai/ha, 0 to 100 scale where 0 is no effect and 100 is complete control
Method in brief: as §1

velvetleaf [6] = assay: Test A preemergence; type: in vivo, Abutilon theophrasti; conditions: for Velvetleaf plant response rating (0 to 100 scale): 125 g ai/ha; for Velvetleaf plant response rating: 500 g ai/ha, 0 to 100 scale where 0 is no effect and 100 is complete control
Method in brief: as §1

wheat [7] = assay: Test A preemergence; type: in vivo, Triticum aestivum; conditions: for Wheat plant response rating (0 to 100 scale): 125 g ai/ha; for Wheat plant response rating: 500 g ai/ha, 0 to 100 scale where 0 is no effect and 100 is complete control
Method in brief: as §1

corn [8] = assay: Test A preemergence; type: in vivo, Zea mays; conditions: 0 to 100 scale where 0 is no effect and 100 is complete control; for Plant response rating, Corn: 125 g ai/ha; for Corn plant response rating: 500 g ai/ha
Method in brief: as §1

barnyardgrass [9] = assay: Test A postemergence; type: in vivo, Echinochloa crus-galli; conditions: 0 to 100 scale where 0 is no effect and 100 is complete control; for Barnyardgrass plant response rating: 125 g ai/ha; for Plant response rating, Barnyardgrass: 500 g ai/ha
Method in brief: as §1

large (Lg) crabgrass [10] = assay: Test A postemergence; type: in vivo, Digitaria sanguinalis; conditions: 0 to 100 scale where 0 is no effect and 100 is complete control; for Crabgrass, Large plant response rating: 125 g ai/ha; for Plant response rating, Crabgrass, Large: 500 g ai/ha
Method in brief: as §1

giant foxtail [11] = assay: Test A postemergence; type: in vivo, Setaria faberii; conditions: 0 to 100 scale where 0 is no effect and 100 is complete control; for Foxtail, Giant plant response rating: 125 g ai/ha; for Plant response rating, Foxtail, Giant: 500 g ai/ha
Method in brief: as §1

morningglory [12] = assay: Test A postemergence; type: in vivo, Ipomoea spp.; conditions: 0 to 100 scale where 0 is no effect and 100 is complete control; for Morningglory plant response rating: 125 g ai/ha; for Plant response rating, Morningglory: 500 g ai/ha
Method in brief: as §1

pigweed [13] = assay: Test A postemergence; type: in vivo, Amaranthus retroflexus; conditions: 0 to 100 scale where 0 is no effect and 100 is complete control; for Pigweed plant response rating: 125 g ai/ha; for Plant response rating, Pigweed: 500 g ai/ha
Method in brief: as §1

velvetleaf [14] = assay: Test A postemergence; type: in vivo, Abutilon theophrasti; conditions: 0 to 100 scale where 0 is no effect and 100 is complete control; for Velvetleaf plant response rating: 125 g ai/ha; for Plant response rating, Velvetleaf: 500 g ai/ha
Method in brief: as §1

wheat [15] = assay: Test A postemergence; type: in vivo, Triticum aestivum; conditions: 0 to 100 scale where 0 is no effect and 100 is complete control; for Wheat plant response rating: 125 g ai/ha; for Plant response rating, Wheat: 500 g ai/ha
Method in brief: as §1

corn [16] = assay: Test A postemergence; type: in vivo, Zea mays; conditions: 0 to 100 scale where 0 is no effect and 100 is complete control; for Corn plant response rating: 125 g ai/ha; for Plant response rating, Corn: 500 g ai/ha
Method in brief: as §1

rice = assay: Test B flooded paddy test; type: in vivo, Oryza sativa; conditions: Flood, 250 g ai/ha; 0 to 100 scale where 0 is no effect and 100 is complete control
Method in brief: (§2)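 Seedlings are raised to two leaves, flooded to a depth of 3 cm and dosed by adding the compound to the floodwater. Water level is kept constant, and plants are scored visually versus controls 13–15 days later (0 = no effect, 100 = complete control).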

sedge, umbrella = assay: Test B flooded paddy test; type: in vivo, Cyperus difformis; conditions: Flood, 250 g ai/ha; 0 to 100 scale where 0 is no effect and 100 is complete control
Method in brief: as §2

Heteranthera limosa = assay: Test B flooded paddy test; type: in vivo; conditions: Flood, 250 g ai/ha; 0 to 100 scale where 0 is no effect and 100 is complete control
Method in brief: as §2

barnyardgrass [17] = assay: Test B flooded paddy test; type: in vivo, Echinochloa crus-galli; conditions: Flood, 250 g ai/ha; 0 to 100 scale where 0 is no effect and 100 is complete control
Method in brief: as §2

SMILES | Plant response rating, Barnyardgrass (barnyardgrass [1]) | Barnyardgrass plant response rating (barnyardgrass [1]) | Plant response rating, Crabgrass, Large (large (Lg) crabgrass [2]) | Crabgrass, Large plant response rating (large (Lg) crabgrass [2]) | Plant response rating, Foxtail, Giant (giant foxtail [3]) | Foxtail, Giant plant response rating (giant foxtail [3]) | Morningglory plant response rating (0 to 100 scale) (morningglory [4]) | Morningglory plant response rating (morningglory [4]) | Pigweed plant response rating (0 to 100 scale) (pigweed [5]) | Pigweed plant response rating (pigweed [5]) | Velvetleaf plant response rating (0 to 100 scale) (velvetleaf [6]) | Velvetleaf plant response rating (velvetleaf [6]) | Wheat plant response rating (0 to 100 scale) (wheat [7]) | Wheat plant response rating (wheat [7]) | Plant response rating, Corn (corn [8]) | Corn plant response rating (corn [8]) | Barnyardgrass plant response rating (barnyardgrass [9]) | Plant response rating, Barnyardgrass (barnyardgrass [9]) | Crabgrass, Large plant response rating (large (Lg) crabgrass [10]) | Plant response rating, Crabgrass, Large (large (Lg) crabgrass [10]) | further results
FC(F)(F)c1cnn(-c2c(Cl)cccc2Oc2ncc(Br)cn2)c1 [Compound 168] | 50 | 80 | 100 | 100 | 100 | 100 | 20 | 80 | 100 | 100 | 70 | 90 | 20 | 20 | 0 | 20 | 50 | 90 | 70 | 90 | Foxtail, Giant plant response rating (giant foxtail [11]): 70; Plant response rating, Foxtail, Giant (giant foxtail [11]): 90; Morningglory plant response rating (morningglory [12]): 50; Plant response rating, Morningglory (morningglory [12]): 100; Pigweed plant response rating (pigweed [13]): 100; Plant response rating, Pigweed (pigweed [13]): 100; Velvetleaf plant response rating (velvetleaf [14]): 90; Plant response rating, Velvetleaf (velvetleaf [14]): 100; Wheat plant response rating (wheat [15]): 10; Plant response rating, Wheat (wheat [15]): 50; Corn plant response rating (corn [16]): 20; Plant response rating, Corn (corn [16]): 30; Plant response rating, Rice (rice): 30; Plant response rating, Sedge, Umbrella (sedge, umbrella): 80; Plant response rating, Ducksalad (Heteranthera limosa): 90; Plant response rating, Barnyardgrass (barnyardgrass [17]): 0
O=Cc1cccc(Oc2ncc(Cl)cn2)c1-n1cc(C(F)(F)F)cn1 [Compound 171] | 20 | 60 | 0 | 0 | 0 | 0 | 0 | 0 | 90 | 100 | 30 | 70 | 0 | 0 | 0 | 0 | 0 | 0 | 0 | 0 | Foxtail, Giant plant response rating (giant foxtail [11]): 0; Plant response rating, Foxtail, Giant (giant foxtail [11]): 0; Morningglory plant response rating (morningglory [12]): 0; Plant response rating, Morningglory (morningglory [12]): 0; Pigweed plant response rating (pigweed [13]): 100; Plant response rating, Pigweed (pigweed [13]): 100; Velvetleaf plant response rating (velvetleaf [14]): 40; Plant response rating, Velvetleaf (velvetleaf [14]): 70; Wheat plant response rating (wheat [15]): 0; Plant response rating, Wheat (wheat [15]): 0; Corn plant response rating (corn [16]): 0; Plant response rating, Corn (corn [16]): 0; Plant response rating, Rice (rice): 0; Plant response rating, Sedge, Umbrella (sedge, umbrella): 0; Plant response rating, Ducksalad (Heteranthera limosa): 0; Plant response rating, Barnyardgrass (barnyardgrass [17]): 0
FC(F)c1cccc(Oc2ncc(I)cn2)c1-n1cc(Br)cn1 [Compound 173] | 0 | 30 | 20 | 80 | 50 | 70 | 0 | 0 | 80 | 100 | 0 | 0 | 0 | 0 | 0 | 0 | 0 | 30 | 0 | 40 | Foxtail, Giant plant response rating (giant foxtail [11]): 10; Plant response rating, Foxtail, Giant (giant foxtail [11]): 50; Morningglory plant response rating (morningglory [12]): 0; Plant response rating, Morningglory (morningglory [12]): 0; Pigweed plant response rating (pigweed [13]): 100; Plant response rating, Pigweed (pigweed [13]): 100; Velvetleaf plant response rating (velvetleaf [14]): 60; Plant response rating, Velvetleaf (velvetleaf [14]): 70; Wheat plant response rating (wheat [15]): 0; Plant response rating, Wheat (wheat [15]): 0; Corn plant response rating (corn [16]): 0; Plant response rating, Corn (corn [16]): 20; Plant response rating, Rice (rice): 0; Plant response rating, Sedge, Umbrella (sedge, umbrella): 0; Plant response rating, Ducksalad (Heteranthera limosa): 0; Plant response rating, Barnyardgrass (barnyardgrass [17]): 0
N#Cc1cnc(Oc2cccc(C=O)c2-n2cc(Br)cn2)nc1 [Compound 174] | 0 | 0 | 0 | 0 | 0 | 0 | 0 | 0 | 0 | 0 | 0 | 0 | 0 | 0 | 0 | 0 | 0 | 0 | 0 | 0 | Foxtail, Giant plant response rating (giant foxtail [11]): 0; Plant response rating, Foxtail, Giant (giant foxtail [11]): 0; Morningglory plant response rating (morningglory [12]): 0; Plant response rating, Morningglory (morningglory [12]): 0; Pigweed plant response rating (pigweed [13]): 0; Plant response rating, Pigweed (pigweed [13]): 0; Velvetleaf plant response rating (velvetleaf [14]): 0; Plant response rating, Velvetleaf (velvetleaf [14]): 0; Wheat plant response rating (wheat [15]): 0; Plant response rating, Wheat (wheat [15]): 0; Corn plant response rating (corn [16]): 0; Plant response rating, Corn (corn [16]): 0; Plant response rating, Rice (rice): 0; Plant response rating, Sedge, Umbrella (sedge, umbrella): 0; Plant response rating, Ducksalad (Heteranthera limosa): 0; Plant response rating, Barnyardgrass (barnyardgrass [17]): 0
N#Cc1cnc(Oc2cccc(C(F)F)c2-n2cc(Br)cn2)nc1 [Compound 175] | 0 | 0 | 0 | 0 | 0 | 0 | 0 | 0 | 0 | 0 | 0 | 0 | 0 | 0 | 0 | 0 | 0 | 0 | 0 | 0 | Foxtail, Giant plant response rating (giant foxtail [11]): 0; Plant response rating, Foxtail, Giant (giant foxtail [11]): 0; Morningglory plant response rating (morningglory [12]): 0; Plant response rating, Morningglory (morningglory [12]): 0; Pigweed plant response rating (pigweed [13]): 0; Plant response rating, Pigweed (pigweed [13]): 0; Velvetleaf plant response rating (velvetleaf [14]): 0; Plant response rating, Velvetleaf (velvetleaf [14]): 0; Wheat plant response rating (wheat [15]): 0; Plant response rating, Wheat (wheat [15]): 0; Corn plant response rating (corn [16]): 0; Plant response rating, Corn (corn [16]): 0; Plant response rating, Rice (rice): 0; Plant response rating, Sedge, Umbrella (sedge, umbrella): 0; Plant response rating, Ducksalad (Heteranthera limosa): 0; Plant response rating, Barnyardgrass (barnyardgrass [17]): 0

Source: patent US9695155B2, “Herbicidal substituted pyrimidinyloxy benzene compounds” (E. I. DU PONT DE NEMOURS AND COMPANY, priority 2013, dated 2017)
